Columns and labels:
Assay type in all cases: functional
SK-MEL-5 = assay: Growth inhibition of human SK-MEL-5 cells incubated for 48 hrs by sulforhodamine B assay; settings: SK-MEL-5, 48 h
TK-10 = assay: Growth inhibition of human TK10 cells incubated for 48 hrs by sulforhodamine B assay; settings: TK-10, 48 h
SK-MEL-28 = assay: Growth inhibition of human SK-MEL-28 cells incubated for 48 hrs by sulforhodamine B assay; settings: SK-MEL-28, 48 h
SW-620 = assay: Growth inhibition of human SW620 cells incubated for 48 hrs by sulforhodamine B assay; settings: SW-620, 48 h
KM12 = assay: Growth inhibition of human KM12 cells incubated for 48 hrs by sulforhodamine B assay; settings: KM12, 48 h
HCT-116 = assay: Growth inhibition of human HCT116 cells incubated for 48 hrs by sulforhodamine B assay; settings: HCT-116, 48 h
LOX IMVI = assay: Growth inhibition of human LOXIMVI cells incubated for 48 hrs by sulforhodamine B assay
T47D = assay: Growth inhibition of human T47D cells incubated for 48 hrs by sulforhodamine B assay
NCI-H322M = assay: Growth inhibition of human NCI-H322M cells incubated for 48 hrs by sulforhodamine B assay
HCT-15 = assay: Growth inhibition of human HCT15 cells incubated for 48 hrs by sulforhodamine B assay; settings: HCT-15, 48 h
OVCAR-5 = assay: Growth inhibition of human OVCAR5 cells incubated for 48 hrs by sulforhodamine B assay; settings: OVCAR-5, 48 h
CAKI-1 = assay: Growth inhibition of human Caki1 cells incubated for 48 hrs by sulforhodamine B assay; settings: CAKI-1, 48 h
OVCAR-4 = assay: Growth inhibition of human OVCAR4 cells incubated for 48 hrs by sulforhodamine B assay; settings: OVCAR-4, 48 h
NCI-H226 = assay: Growth inhibition of human NCI-H226 cells incubated for 48 hrs by sulforhodamine B assay; settings: NCI-H226, 48 h
HT-29 = assay: Growth inhibition of human HT-29 cells incubated for 48 hrs by sulforhodamine B assay; settings: HT-29, 48 h
ACHN = assay: Growth inhibition of human ACHN cells incubated for 48 hrs by sulforhodamine B assay
Hs-578T = assay: Growth inhibition of human Hs 578T cells incubated for 48 hrs by sulforhodamine B assay
SF-268 = assay: Growth inhibition of human SF268 cells incubated for 48 hrs by sulforhodamine B assay; settings: SF-268, 48 h
MDA-MB-468 = assay: Growth inhibition of human MDA-MB-468 cells incubated for 48 hrs by sulforhodamine B assay; settings: MDA-MB-468, 48 h
UACC-62 = assay: Growth inhibition of human UACC62 cells incubated for 48 hrs by sulforhodamine B assay; settings: UACC-62, 48 h
COLO 205 = assay: Growth inhibition of human COLO205 cells incubated for 48 hrs by sulforhodamine B assay; settings: COLO 205, 48 h
EKVX = assay: Growth inhibition of human EKVX cells incubated for 48 hrs by sulforhodamine B assay
SN12C = assay: Growth inhibition of human SN12C cells incubated for 48 hrs by sulforhodamine B assay
MDA-MB-231 = assay: Growth inhibition of human MDA-MB-231 cells incubated for 48 hrs by sulforhodamine B assay; settings: MDA-MB-231, 48 h
PC-3 = assay: Growth inhibition of human PC3 cells incubated for 48 hrs by sulforhodamine B assay; settings: PC-3, 48 h
SK-OV-3 = assay: Growth inhibition of human SKOV3 cells incubated for 48 hrs by sulforhodamine B assay; settings: SK-OV-3, 48 h
MOLT-4 = assay: Growth inhibition of human MOLT4 cells incubated for 48 hrs by sulforhodamine B assay; settings: MOLT-4, 48 h
NCI-H23 = assay: Growth inhibition of human NCI-H23 cells incubated for 48 hrs by sulforhodamine B assay; settings: NCI-H23, 48 h
NCI-H522 = assay: Growth inhibition of human NCI-H522 cells incubated for 48 hrs by sulforhodamine B assay; settings: NCI-H522, 48 h
UACC-257 = assay: Growth inhibition of human UACC257 cells incubated for 48 hrs by sulforhodamine B assay; settings: UACC-257, 48 h
786-0 = assay: Growth inhibition of human 786-0 cells incubated for 48 hrs by sulforhodamine B assay; settings: 786-0, 48 h
SR = assay: Growth inhibition of human SR cells incubated for 48 hrs by sulforhodamine B assay
IGROV-1 = assay: Growth inhibition of human IGROV1 cells incubated for 48 hrs by sulforhodamine B assay; settings: IGROV-1, 48 h
RXF 393 = assay: Growth inhibition of human RXF393 cells incubated for 48 hrs by sulforhodamine B assay; settings: RXF 393, 48 h
SF-295 = assay: Growth inhibition of human SF295 cells incubated for 48 hrs by sulforhodamine B assay; settings: SF-295, 48 h
M14 = assay: Growth inhibition of human M14 cells incubated for 48 hrs by sulforhodamine B assay; settings: M14, 48 h
DU-145 = assay: Growth inhibition of human DU145 cells incubated for 48 hrs by sulforhodamine B assay; settings: DU-145, 48 h
Malme-3M = assay: Growth inhibition of human MALME-3M cells incubated for 48 hrs by sulforhodamine B assay
U-251 = assay: Growth inhibition of human U251 cells incubated for 48 hrs by sulforhodamine B assay; settings: U-251, 48 h
OVCAR-8 = assay: Growth inhibition of human OVCAR8 cells incubated for 48 hrs by sulforhodamine B assay; settings: OVCAR-8, 48 h
SNB-75 = assay: Growth inhibition of human SNB75 cells incubated for 48 hrs by sulforhodamine B assay; settings: SNB-75, 48 h
NCI-H460 = assay: Growth inhibition of human NCI-H460 cells incubated for 48 hrs by sulforhodamine B assay; settings: NCI-H460, 48 h
A549 = assay: Growth inhibition of human A549/ATCC cells incubated for 48 hrs by sulforhodamine B assay; settings: A549, 48 h
RPMI-8226 = assay: Growth inhibition of human RPMI8226 cells incubated for 48 hrs by sulforhodamine B assay; settings: RPMI-8226, 48 h
SF-539 = assay: Growth inhibition of human SF539 cells incubated for 48 hrs by sulforhodamine B assay; settings: SF-539, 48 h
BT-549 = assay: Growth inhibition of human BT549 cells incubated for 48 hrs by sulforhodamine B assay; settings: BT-549, 48 h
MDA-MB-435 = assay: Growth inhibition of human MDA-MB-435 cells incubated for 48 hrs by sulforhodamine B assay; settings: MDA-MB-435, 48 h
UO-31 = assay: Growth inhibition of human UO31 cells incubated for 48 hrs by sulforhodamine B assay; settings: UO-31, 48 h
HOP-62 = assay: Growth inhibition of human HOP62 cells incubated for 48 hrs by sulforhodamine B assay; settings: HOP-62, 48 h
CCRF-CEM = assay: Growth inhibition of human CCRF-CEM cells incubated for 48 hrs by sulforhodamine B assay
SNB-19 = assay: Growth inhibition of human SNB19 cells incubated for 48 hrs by sulforhodamine B assay; settings: SNB-19, 48 h
A498 = assay: Growth inhibition of human A498 cells incubated for 48 hrs by sulforhodamine B assay; settings: A498, 48 h
OVCAR-3 = assay: Growth inhibition of human OVCAR3 cells incubated for 48 hrs by sulforhodamine B assay; settings: OVCAR-3, 48 h
HL-60(TB) = assay: Growth inhibition of human HL-60(TB) cells incubated for 48 hrs by sulforhodamine B assay; settings: HL-60, 48 h
SK-MEL-2 = assay: Growth inhibition of human SK-MEL-2 cells incubated for 48 hrs by sulforhodamine B assay; settings: SK-MEL-2, 48 h

CNC(=O)c1cc(Oc2ccc(NC(=O)Nc3ccc(Cl)c(C(F)(F)F)c3)cc2)ccn1 [SORAFENIB]
TGI (SK-MEL-5): 2.51 µM
TGI (TK-10): 10 µM
TGI (SK-MEL-28): 2.51 µM
TGI (SW-620): 5.01 µM
TGI (KM12): 2.51 µM
TGI (HCT-116): 2.51 µM
TGI (LOX IMVI): 2.51 µM
TGI (T47D): 5.01 µM
TGI (NCI-H322M): 5.01 µM
TGI (HCT-15): 3.16 µM
TGI (OVCAR-5): 6.31 µM
TGI (CAKI-1): 12.6 µM
TGI (OVCAR-4): 25.1 µM
GI50 (NCI-H226): 2 µM
TGI (NCI-H226): 3.16 µM
GI50 (HT-29): 2 µM
TGI (HT-29): 5.01 µM
TGI (ACHN): 10 µM
TGI (Hs-578T): 3.98 µM
TGI (SF-268): 3.98 µM
GI50 (MDA-MB-468): 2 µM
TGI (MDA-MB-468): 5.01 µM
TGI (UACC-62): 2.51 µM
GI50 (COLO 205): 2 µM
TGI (COLO 205): 3.16 µM
TGI (EKVX): 19.9 µM
TGI (SN12C): 3.16 µM
TGI (MDA-MB-231): 3.16 µM
GI50 (PC-3): 2 µM
TGI (PC-3): 5.01 µM
TGI (SK-OV-3): 5.01 µM
TGI (MOLT-4): 100 µM
GI50 (NCI-H23): 2 µM
GI50 (NCI-H522): 2 µM
TGI (NCI-H522): 5.01 µM
GI50 (UACC-257): 2 µM
TGI (786-0): 5.01 µM
TGI (SR): 63.1 µM
TGI (IGROV-1): 10 µM
TGI (RXF 393): 5.01 µM
TGI (SF-295): 6.31 µM
GI50 (M14): 2 µM
TGI (M14): 3.16 µM
TGI (DU-145): 7.94 µM
GI50 (Malme-3M): 2 µM
TGI (Malme-3M): 39.8 µM
GI50 (U-251): 2 µM
TGI (U-251): 3.16 µM
GI50 (OVCAR-8): 3.16 µM
TGI (OVCAR-8): 12.6 µM
TGI (SNB-75): 3.98 µM
TGI (NCI-H460): 5.01 µM
TGI (A549): 7.94 µM
TGI (RPMI-8226): 3.16 µM
TGI (SF-539): 2.51 µM
TGI (BT-549): 3.98 µM
TGI (MDA-MB-435): 5.01 µM
TGI (UO-31): 6.31 µM
GI50 (HOP-62): 2 µM
TGI (HOP-62): 3.16 µM
GI50 (CCRF-CEM): 2 µM
TGI (CCRF-CEM): 5.01 µM
TGI (SNB-19): 3.98 µM
TGI (A498): 3.16 µM
TGI (OVCAR-3): 3.98 µM
TGI (HL-60(TB)): 100 µM
GI50 (SK-MEL-2): 2 µM
TGI (SK-MEL-2): 6.31 µM

Source: ChEMBL document CHEMBL3994622, “Design and synthesis of new RAF kinase-inhibiting antiproliferative quinoline derivatives. Part 2: Diarylurea derivatives” (Eur J Med Chem, 2017)
